According to US20110262457A1, “MODULATION OF THE IMMUNE RESPONSE” (priority 2008, published 2011):
“Also recorded” adds a separate entry of the source.

Key:
Hep3b cells = assay: In vivo model of hepatocellular carcinoma (Hep3b cells in athymic nude mouse reconstituted with splenocytes)
Method: FIGS. 3A and 3B are bar graphs illustrating AFP levels in HCC tumor models treated with FICZ (3A) or FICZ plus HBSAg (3B).
In this example the effects of FICZ administration on Hepatocellular Carcinoma were evaluated in a mouse model of cancer.
The present study used athymic nude mouse (N=7), a type of laboratory mouse that is hairless, lacks a normal thymus gland, and has a defective immune system because of a genetic mutation.
100 ug of frozen FICZ (BIOMOL International, Plymouth Meeting, Pa.) was dissolved in 5 ml of CREMOPHOR™ (polyethoxylated castor oil):ethanol in phosphate buffered saline (PBS), to produce a working solution of 20 ug/ml. 250 ul (5 ug total) of HBs antigen was injected in Treatment Group C. The experiments were carried out as follows:
Tumor sizes were measured in three dimensions using Vernier calipers and tumor volume was computed assuming a spherical geometry with radius equal to one-half the average tumor dimension: TV (mm^3)=d^2×D/2. Tumors were measured two times a week and mice were monitored routinely to evaluate the effects of treatment.
In addition, serum AFP levels were monitored; AFP is an accepted tumor marker of HCC.

EAE mice [1] = assay: EAE model (MOG35-55 peptide in CFA), FICZ treatment; type: in vivo
Method: FIG. 2A is a line graph showing development of EAE on FICZ^− or control-treated mice (mean EAE score+s.e.m.)
FIG. 2B is a pair of bar graphs showing cytokine secretion (pg/ml) triggered by MOG35-55 in splenocytes taken from FICZ or control-treated mice; left, IFNgamma, right, IL-17.
FIGS. 2C-2E are each pairs of FACS plots showing the frequency of IFNγ, (2C), IL-17 (2D) or Foxp3 (2E) in splenocytes from FICZ or control-treated mice.
The effects of FICZ were evaluated in vivo using the EAE model described in PCT International Patent Application NO. PCT/US2008/083016, and U.S. Provisional Patent Application Ser. No. 60/989,309, filed on Nov. 20, 2007.
Mice were treated with PBS (control) or […], immunized with MOG35-55 peptide in CFA and monitored for EAE development.

EAE mice [2] = assay: EAE in C57BL/6 mice treated weekly with AHR-ligand nanoparticles; type: in vivo; conditions: weekly from day 0, 45 femtomoles of nanoparticles, FIG. 7
Method: FIG. 7 is a line graph showing modulation of EAE by AHR-ligand nanoparticles. EAE was induced in B6 mice (n=5), the mice were treated with nanoparticles weekly starting from day 0, and the animals were followed for signs of EAE.
To investigate the in vivo functionality of AHR-ligand loaded nanoparticles EAE was induced on naïve C57BL/6 mice and treated them, starting at day 0, weekly with 45 femtomoles of nanoparticles.

naive T cells = assay: In vitro TH17 differentiation of naive T cells with TGFβ1 and IL-6 (with or without IL-23); type: cell-based
From the text: (§1) FIG. 1A is a set of three FACS plots showing conversion of CD4^+Foxp3:GFP^− T cells into CD4^+Foxp3:GFP^+ Treg by stimulation with antibodies to CD3 and CD28 in the presence of TGFb1 with or without FICZ; FIG. 1b; FIG. 1B presents the data in bar graph format. FIG. 1C is a bar graph showing AHR expression in naïve T cells differentiated in vitro into TH1, TH2 or TH17 cells for four days (mean+s.d. of triplicates normalized to actin expression). FIG. 1D is a bar graph showing AHR expression in naïve T cells differentiated in vitro into TH17 for four days with the indicated cytokines (mean+s.d. of triplicates normalized to actin expression). FIG. 1E is a bar graph showing RORγt expression in naïve T cells differentiated into TH17 for four days with TGFβ1 and IL-6 alone or in combination with FICZ (mean+s.d. of triplicates normalized to actin expression). FIG. 1F is a set of nine FACS plots of frequency of IL-17^+ T cells differentiated with TGFβ1 and IL-6 alone or in combination with IL-23 and/or FICZ for four days. FIG. 1G is a bar graph showing IL-17 and FIG. 1H is a pair of bar graphs showing IL-21 (left) and IL-22 (right) levels in supernatants of cultures prepared as in 1E, as measured by ELISA after 4 days of differentiation into.
Next, the effect of AHR activation by FICZ on in vitro TH17 differentiation was investigated using the TH17 transcription factor RORyt as a marker of TH17 differentiation.

CD4+Foxp3:GFP- T cells = assay: Conversion of CD4+Foxp3:GFP- T cells into Treg with antibodies to CD3 and CD28 and TGFb1; type: cell-based; conditions: in vitro, anti-CD3/CD28, TGFβ1, FIGS. 1A, 1B
From the text: as §1, with “into. […]” for “into.”

AHR = target: T1, AHR (Homo sapiens, UniProt P35869); assay: AHR reporter luciferase construct in HEK 293 cells (dual luciferase assay); type: cell-based; conditions: different concentrations, normalised to Tk-Renilla, FIG. 8
T1 construct: endogenous in cells
T1 sequence (P35869 11-848): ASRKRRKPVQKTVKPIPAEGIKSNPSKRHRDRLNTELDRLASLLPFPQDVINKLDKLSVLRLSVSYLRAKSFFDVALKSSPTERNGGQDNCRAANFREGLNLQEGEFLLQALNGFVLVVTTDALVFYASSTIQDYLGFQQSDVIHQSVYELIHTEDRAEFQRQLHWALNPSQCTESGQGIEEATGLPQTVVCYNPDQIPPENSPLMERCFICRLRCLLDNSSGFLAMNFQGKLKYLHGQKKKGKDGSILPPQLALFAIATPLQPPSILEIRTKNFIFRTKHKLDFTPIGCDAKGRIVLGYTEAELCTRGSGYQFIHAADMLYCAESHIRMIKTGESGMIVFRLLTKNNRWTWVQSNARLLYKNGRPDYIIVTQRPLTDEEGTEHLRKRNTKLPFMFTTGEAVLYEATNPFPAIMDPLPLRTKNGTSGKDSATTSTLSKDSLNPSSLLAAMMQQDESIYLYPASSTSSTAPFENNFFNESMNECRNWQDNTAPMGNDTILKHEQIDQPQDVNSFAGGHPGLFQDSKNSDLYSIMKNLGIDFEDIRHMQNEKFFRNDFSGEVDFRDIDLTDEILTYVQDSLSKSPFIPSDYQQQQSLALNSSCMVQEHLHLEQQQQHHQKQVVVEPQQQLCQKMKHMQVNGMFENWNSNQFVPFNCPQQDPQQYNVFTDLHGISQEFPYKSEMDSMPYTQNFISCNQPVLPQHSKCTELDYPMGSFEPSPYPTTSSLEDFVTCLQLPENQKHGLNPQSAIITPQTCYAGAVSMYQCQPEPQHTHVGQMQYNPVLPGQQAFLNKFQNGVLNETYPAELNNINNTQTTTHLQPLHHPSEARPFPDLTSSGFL
Method: FIG. 8 is a bar graph showing fluorescence in 293 cells transfected with an AHR reporter luciferase construct and a TK-Renilla Luciferase construct for normalization purposes. The cells were incubated with different concentrations of the AHR ligand TCDD and activation of the AHR reporter was followed by monitoring fluorescence from the luciferase.
A construct coding for Foxp3 fused to Renilla luciferase (Ren) was created to provide a simple assay to identify compounds that increase expression of AHR (and thus increase luciferase expression and fluorescence as compared to a control) or that decrease expression of AHR (and thus decrease luciferase expression and fluorescence as compared to a control). HEK 293 cells were transfected as described (Bettelli et al., Proc Natl Acad Sci USA 102, 5138-5143 (2005)) with the AHR reporter luciferase construct and a TK-Renilla Luciferase construct for normalization purposes.
The cells were incubated with different concentrations of the AHR ligand
TCDD and activation of the AHR reporter was assayed using the dual luciferase assay kit ([…].). Tk-Renilla was used for standardization.

zebrafish embryos = assay: zFoxp3 and IL-17 expression in developing zebrafish embryos; type: in vivo, zebrafish (Danio rerio); conditions: treatment of developing zebrafish embryos
From the text: FIG. 4D is a bar graph showing the effect of a specific morpholino antisense oligonucleotide against Foxp3 on IL-17 expression in zebrafish.
Zebrafish eggs were collected within 1 hr of spawning, and purified plasmids or morpholino antisense oligonucleotides were microinjected with a fine glass needle connected to an automatic injector. A morpholino oligonucleotide designed to block the translation of zFoxp3 (5′-[…]-3′) and a 5 bases mismatch control oligonucleotide (5′-GTcTTCgAGTAcCATTAAcAAGgAT-3′) were designed and synthesized by Gene Tools (Philomath, Oreg.). Each morpholino nucleotide was injected into the yolk of embryos at one to four cell stages.

T cells = assay: Th17 differentiation of T cells with antibodies to CD3 and CD28, TGF-beta and IL-21; IL-17 by real time PCR; type: cell-based; conditions: 100 nM, compared with FICZ, FIG. 9
Method: FIG. 9 is a bar graph T cells differentiation into Th17 cells by in vitro activation with antibodies to CD3 and CD28 in the presence of TGF-beta and IL-21, in the presence of or not of showing beta-naphthoflavone (bNF) or FICZ (100 nM). IL-17 production was measured by real time PCR.
Briefly, T cells were differentiated into Th17 cells by in vitro activation with antibodies to CD3 and CD28 in the presence of TGF-beta and IL-21 as described (Nature 2008; 454(7202):350-2), in the presence or not of bNF or FICZ (100 nM). IL-17 production was measured by real time PCR.

Question: `O=Cc1c2c(cc3c1=Nc1ccccc1-3)=Nc1ccccc1-2` [FICZ, 6-formylindolo[3,2-b]carbazole] was tested. Which “tumor growth (tumor volume)” value (Hep3b cells; IP twice a week, caliper measurement) did it give?
Answer: suppressed tumor growth

Question: And the “tumor growth as measured by serum AFP levels” value (Hep3b cells; seven and 14 days after treatment initiation, FIGS. 3A, 3B)?
Answer: significantly suppresses tumor growth

Question: What about the “Mean day of onset (Mean ± SD)” value (EAE mice [1]; EAE mice) of the same compound?
Answer: 13.3 ± 1.5

Question: What about the “Mean maximum score (mean ± SD)” value (EAE mice [1]; EAE mice) of the same compound?
Answer: 2.7 ± 1.8

Question: And the EAE development (EAE mice [1]; mice, single dose of 1 μg/mouse, FIG. 2A)?
Answer: significant worsening of EAE; also recorded: worsens EAE

Question: What about the “frequency of CD4+Foxp3+ Treg” value (EAE mice [1]; splenocytes from treated EAE mice, FIG. 2E) of the same compound?
Answer: decrease in the frequency

Question: What about the “frequencies of IL-17+ CD4+ and CD4+IFNγ+ T cells” value (EAE mice [1]; splenocytes from treated EAE mice, FIGS. 2C, 2D) of the same compound?
Answer: increased frequencies

Question: What about the “secretion of IL-17 and IFNγ” value (EAE mice [1]; splenocytes from treated mice, in vitro stimulation with MOG35-55, FIG. 2B) of the same compound?
Answer: increased secretion

Question: What about the EAE development (EAE mice [2]) of the same compound?
Answer: worsened the disease

Question: And the “expression levels of the TH17 transcription factor RORγt” value (naive T cells; FICZ alone, four days, FIG. 1E)?
Answer: did not significantly upregulate

Question: And the “TH17 differentiation in vitro (IL-17+ T cells, IL-17, IL-21, IL-22 levels)” value (naive T cells; with TGFβ1, IL-6 and IL-23, four days, FIGS. 1F-1H)?
Answer: synergized with TGFβ1, IL-6 and IL-23 to drive TH17 differentiation

Question: What about the “differentiation of Treg triggered by TGFβ1” value (CD4+Foxp3:GFP- T cells) of the same compound?
Answer: interfered with the differentiation of Treg

Question: Which “expression of the AHR reporter” value (AHR) does the source give for `Clc1cc2c(cc1Cl)Oc1cc(Cl)c(Cl)cc1O2` [TCDD, 2,3,7,8-tetrachlorodibenzo-p-dioxin] here?
Answer: dose-dependent increases

Question: What about the IL-17 expression (zebrafish embryos) of the same compound?
Answer: down regulation

Question: And the zFoxp3 expression (zebrafish embryos)?
Answer: dose-dependent increase

Question: And the EAE development (EAE mice [2])?
Answer: complete suppression of EAE

Question: Which “T cell differentiation into TH17 cells (IL-17 production by real time PCR)” value (T cells) does the source give for `O=c1cc(-c2ccccc2)oc2ccc3ccccc3c12` [bNF, beta-naphthoflavone] here?
Answer: same effect

Question: `Oc1ccc(C=Cc2cc(O)cc(O)c2)cc1` [resveratrol] was tested. Which “effect on FICZ synergism in TH17 differentiation” value (naive T cells; AHR antagonist added, FIG. 1I) did it give?
Answer: blocked
